The record followed here is publication PMC11492828 (RSC Advances, 2024).

The test system of data set [1] is human neuroblastoma (SH-SY5Y) cells. The experiment in a line: Cytotoxicity/cell viability MTT assay. The conditions noted are these: for Nature in cytotoxicity study: MTT. The class given is cell-based.
A further data set relates to ROS. Kind of data set: Flow cytometric analysis of ROS in Aβ-induced SH-SY5Y cells. The data set is classed as cell-based, human.
The test system of another data set is TNF-α. Kind of data set: Flow cytometric analysis of TNF-α expression in Aβ-induced SH-SY5Y cells. The data set is classed as cell-based, human.
Another data set has as its system IL-1β. Kind of data set: Flow cytometric analysis of IL-1β expression in Aβ-induced SH-SY5Y cells. The class given is cell-based, human.
For a further data set, the system named is IL-6. The experiment in a line: Flow cytometric analysis of IL-6 expression in Aβ-induced SH-SY5Y cells. The data set is classed as cell-based, human.
In data set [2] the test system is Aβ-induced SH-SY5Y cell line. Kind of data set: Anti-inflammatory and anti-oxidant activity in the Aβ-induced SH-SY5Y cell line. The data set is classed as cell-based, human. Conditions: 2.5 to 40 μM, vs pioglitazone.
A further data set deals with T1, PPAR-γ (Homo sapiens, UniProt P37231).
T1 sequence (P37231 1-505): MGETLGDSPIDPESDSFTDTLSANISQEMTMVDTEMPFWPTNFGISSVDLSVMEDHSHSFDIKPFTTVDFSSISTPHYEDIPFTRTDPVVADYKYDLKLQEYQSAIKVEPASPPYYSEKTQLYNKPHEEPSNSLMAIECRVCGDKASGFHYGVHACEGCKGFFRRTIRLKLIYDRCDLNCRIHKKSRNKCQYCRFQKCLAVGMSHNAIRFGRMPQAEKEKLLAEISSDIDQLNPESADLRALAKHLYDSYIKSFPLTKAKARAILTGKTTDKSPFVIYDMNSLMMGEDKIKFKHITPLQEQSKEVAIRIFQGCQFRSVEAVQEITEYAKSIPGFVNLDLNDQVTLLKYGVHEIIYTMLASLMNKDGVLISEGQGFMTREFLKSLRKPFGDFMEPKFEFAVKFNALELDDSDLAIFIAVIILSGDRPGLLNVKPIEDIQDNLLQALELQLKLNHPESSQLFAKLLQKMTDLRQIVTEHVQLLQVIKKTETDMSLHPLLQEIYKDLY
Kind of data set: PPAR-γ transactivation assay. The data set is classed as cell-based. Conditions: SH-SY5Y cells, 1–16 μM.

The mark [3] stands for this setting: Homo sapiens, SH-SY5Y, read-out: IC50 MTT assay, SH-SY5Y cells.
Where [4] appears, read: read-out: IC50 MTT assay, SH-SY5Y cells.

Like-named read-outs stand apart in the source and are kept apart here.

For the compound `CC(/C=C/c1ccc(OCC(=O)Nc2ccccc2F)cc1)=N\O` [Compound 4f, N-(2-Fluorophenyl)-2-(4-((1E,3E)-3-(hydroxyimino)but-1-en-1-yl)phenoxy)acetamide], the IC50 in data set [1] (setting [3]) came to 66.7 µM. Also, the “Nature in cytotoxicity study” value in data set [1] (SH-SY5Y cells) was “cytotoxic”.
The matching figures for `COc1cc(/C=C/C(C)=N/O)ccc1OCC(=O)Nc1ccccc1C` [Compound 4e, 2-(4-((1E,3E)-3-(Hydroxyimino)but-1-en-1-yl)-2-methoxyphenoxy)-N-(o-tolyl)acetamide]: 79.7 µM and “cytotoxic”.
As for `CCc1ccc(CCOc2ccc(CC3SC(=O)NC3=O)cc2)nc1` (stereo not shown) [Pioglitazone, pioglitazone], the ROS% cell expression in the data set on ROS (Aβ 10 μM + 2.5 μM compound) came to 60.98%; in the data set on ROS (Aβ 10 μM + 5 μM compound), 53.96%; in the data set with ROS (Aβ 10 μM + 10 μM compound), 41.78%; in the data set with ROS (Aβ 10 μM + 20 μM compound) it was 21.01%; in the data set on ROS (Aβ 10 μM + 40 μM compound), 9.07%. Moreover, the TNF-α% cell expression came to 67.8% in the data set on TNF-α (Aβ 10 μM + 2.5 μM compound); 53.92% with TNF-α (Aβ 10 μM + 5 μM compound); 24.85% in the data set with TNF-α (Aβ 10 μM + 10 μM compound); 9.8% in the data set with TNF-α (Aβ 10 μM + 20 μM compound); 5.5% with TNF-α (Aβ 10 μM + 40 μM compound). Further, the IL-1β% cell expression came to 70.21% in the data set with IL-1β (Aβ 10 μM + 2.5 μM compound); 52.38% in the data set on IL-1β (Aβ 10 μM + 5 μM compound); 32.36% in the data set with IL-1β (Aβ 10 μM + 10 μM compound); 15.15% with IL-1β (Aβ 10 μM + 20 μM compound); 10.76% in the data set on IL-1β (Aβ 10 μM + 40 μM compound). For the same compound, the IL-6% cell expression in the data set with IL-6 (Aβ 10 μM + 2.5 μM compound) is on record as 42.95%; with IL-6 (Aβ 10 μM + 5 μM compound), 30.23%; in the data set with IL-6 (Aβ 10 μM + 10 μM compound) it was 15.09%; with IL-6 (Aβ 10 μM + 20 μM compound), 9.51%; in the data set on IL-6 (Aβ 10 μM + 40 μM compound), 12.31%.
As to `COc1cc(/C=C/C(C)=N/O)ccc1OCC(=O)Nc1cccc(C)c1` [Compound 4h, 2-(4-((1E,3E)-3-(Hydroxyimino)but-1-en-1-yl)-2-methoxyphenoxy)-N-(m-tolyl)acetamide], the “Anti-inflammatory and anti-oxidant activity (expression of pro-inflammatory cytokines and ROS)” value in data set [2] was “promising anti-inflammatory activity and anti-oxidant activity”. Besides, the PPAR-γ transcriptional activity entry at PPAR-γ is reported as “dose-dependent enhancement”. Further, the half-maximal inhibitory concentration (IC50) in data set [1] (setting [3]) is 150 µM; in data set [1] (setting [4]) it was greater than 100 µM. For the same compound, the “Nature in cytotoxicity study” value in data set [1] (SH-SY5Y cells) is “cell proliferative and non-cytotoxic”.
For the compound `COc1cc(/C=C/C(C)=N/O)ccc1OCC(=O)Nc1ccccc1` [Compound 4c, 2-(4-((1E,3E)-3-(Hydroxyimino)but-1-en-1-yl)-2-methoxyphenoxy)-N-phenylacetamide], in data set [1] (setting [3]), the IC50 was found to be 50.7 µM. Besides, in data set [1] (SH-SY5Y cells), the “Nature in cytotoxicity study” value is listed as “cytotoxic”.
`COc1cc(/C=C/C(C)=N/O)ccc1OCC(=O)Nc1ccc(Cl)cc1` [Compound 4a, N-(4-Chlorophenyl)-2-(4-((1E,3E)-3-(hydroxyimino)but-1-en-1-yl)-2methoxyphenoxy)acetamide]: the “Anti-inflammatory and anti-oxidant activity (expression of pro-inflammatory cytokines and ROS)” value in data set [2] is “promising anti-inflammatory activity and anti-oxidant activity”. Besides, the PPAR-γ transcriptional activity entry on PPAR-γ is listed as “dose-dependent enhancement”. The IC50 in data set [1] (setting [3]) is 108 µM; in data set [1] (setting [4]), greater than 100 µM. For the same compound, the “Nature in cytotoxicity study” value in data set [1] (SH-SY5Y cells) was “cell proliferative and non-cytotoxic”.
Consider `CC(/C=C/c1ccc(OCC(=O)Nc2ccccc2)cc1)=N\O` [Compound 4i, 2-(4-((1E,3E)-3-(Hydroxyimino)but-1-en-1-yl)phenoxy)-N-phenylacetamide], for which, in data set [1] (setting [3]), the IC50 came to 82.3 µM. Moreover, the “Nature in cytotoxicity study” value in data set [1] (SH-SY5Y cells) was “cytotoxic”.
With `COc1cc(/C=C/C(C)=N/O)ccc1OCC(=O)Nc1ccc(C)cc1` [Compound 4b, 2-(4-((1E,3E)-3-(Hydroxyimino)but-1-en-1-yl)-2-methoxyphenoxy)-N-(p-tolyl)acetamide], the IC50 in data set [1] (setting [3]) amounted to 112 µM. Besides, in data set [1] (SH-SY5Y cells), the “Nature in cytotoxicity study” value was “cell proliferative and non-cytotoxic”.
